Assay [1] addresses T1, hA3AR (Homo sapiens, UniProt P0DMS8).
T1 sequence (P0DMS8 1-318): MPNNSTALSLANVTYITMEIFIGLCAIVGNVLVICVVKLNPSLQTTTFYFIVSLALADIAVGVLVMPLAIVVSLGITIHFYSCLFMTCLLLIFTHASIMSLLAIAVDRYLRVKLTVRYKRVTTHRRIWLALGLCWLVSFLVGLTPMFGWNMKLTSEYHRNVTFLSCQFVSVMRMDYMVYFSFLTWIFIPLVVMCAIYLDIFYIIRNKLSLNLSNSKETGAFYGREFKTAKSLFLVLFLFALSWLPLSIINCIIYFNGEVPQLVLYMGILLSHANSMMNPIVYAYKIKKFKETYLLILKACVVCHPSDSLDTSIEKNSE
The following applies: 25 °C; ref 7 (Xia et al.); cited from earlier work.

The target in assay [2] is T1, hA3AR. The format is biochemical. As to conditions: for mode of antagonism: [35S]GTPγS binding assays, overall; for Schild slope, co-incubation: antagonist co-incubated with 2-Cl-IB-MECA for 30 min at 25 °C; for type of antagonism in co-incubation experiment: co-incubated with 2-Cl-IB-MECA; for type of antagonism in preincubation experiment: pretreatment with antagonist before 2-Cl-IB-MECA.

In assay [3] the target is T1, hA3AR. The assay is described as follows: Time-dependent [3H]PSB-11 displacement with or without 4 h preincubation. Format: binding. The following applies: no preincubation, 0.5 h co-incubation with [3H]PSB-11, 25 °C.
The target of assay [4] is T1, hA3AR. The assay is described as follows: Radioligand competition association assay with [3H]PSB-11. The following applies: competition association curve, Figure 3. Format: binding.

SMILES strings stand for the structures.

As for `CC[C@@H]1CN2C(=O)N(C)c3nc(-c4ccccc4)[nH]c3C2=N1` [[^3H]PSB-11, [^3H]8-Ethyl-4-methyl-2-phenyl-(8R)-4,5,7,8-tetrahydro-1H-imidazo[2,1-i]-purin-5-one], on hA3AR [1], the “koff (k2) of radioligand” value was 0.3992 ± 0.02 min^–1 and the “kon (k1) of radioligand” value was 0.281 ± 0.04 × 10^8 M^–1 min^–1.
`CCCn1c(=O)c2c(nc3cc(OC)ccn32)n(CCCNC(=O)c2ccc(S(=O)(=O)F)cc2)c1=O` [compound 17b, 4-((3(8-Methoxy-2,4-dioxo-3-propyl-3,4-dihydropyrido[2,1-f]purin-1(2H)yl)propyl)carbamoyl)benzenesulfonyl Fluoride]: at hA3AR [2], the mode of antagonism entry is “competitive insurmountable”; the “Schild slope, co-incubation” value stood at 1.1 ± 0.1; the “type of antagonism in co-incubation experiment” value was “surmountable antagonism”; the “type of antagonism in preincubation experiment” value is “insurmountable antagonism”.
As for `CCCn1c(=O)c2c(nc3cc(OC)ccn32)n(CCCNC(=O)c2ccc(S(C)(=O)=O)cc2)c1=O` [compound 19, N-(3-(8-Methoxy-2,4-dioxo-3-propyl-3,4-dihydropyrido[2,1-f]purin-1(2H)-yl)propyl)-4-(methylsulfonyl)benzamide], the “hA3AR pKi (pre-0 h)” value on hA3AR [3] was 6.2 ± 0.03. Also, the “time to reach equilibrium” value at hA3AR [4] is reported as at most 30 min. Besides, at hA3AR [2], the mode of antagonism result is recorded as “competitive surmountable”; the “Schild slope, co-incubation” value is 1.0 ± 0.1; the “type of antagonism in co-incubation experiment” value is “surmountable antagonism”; the “type of antagonism in preincubation experiment” value was “surmountable antagonism”. For the same compound, the “Schild slope, preincubation” value at hA3AR [2] (antagonist preincubated 60 min at 25 °C before 2-Cl-IB-MECA for 30 min) came out at 1.1 ± 0.1.

These data come from paper PMC6466477 (Journal of Medicinal Chemistry, 2019).
